For three compounds, MIC results are on record in patent US4698327A, “Novel glycopeptide derivatives” (priority 1986, dated 1987).

Experiment [1] deals with Haemophilus influenzae 76. As to the kind of experiment: MIC, standard agar-dilution assay. Format: cell-based.
In experiment [2] the test system is Staphylococcus aureus V41. The experiment in a line: MIC, standard agar-dilution assay. Format: cell-based.
For experiment [3], the system named is Streptococcus pneumoniae Park 1. The class given is cell-based. Particulars: agar dilution. In general terms: Agar dilution tests growth on a series of plates holding different concentrations.
Experiment [4] concerns Staphylococcus epidermidis EPI1. The class given is cell-based. The settings on record: agar dilution.
Experiment [5] relates to Staphylococcus aureus S13E. The class given is cell-based. The settings on record: agar dilution.
Experiment [6] deals with Staphylococcus aureus NRRL B313. Particulars: agar dilution.
Experiment [7] relates to Klebsiella pneumoniae X68. The experiment in a line: MIC, standard agar-dilution assay. The class given is cell-based.
The test system of experiment [8] is Klebsiella pneumoniae X26. The experiment in a line: MIC, standard agar-dilution assay. The class given is cell-based.
Experiment [9] has as its system Staphylococcus aureus X400. As to the kind of experiment: MIC, standard agar-dilution assay. Format: cell-based.
For experiment [10], the system named is Streptococcus pyogenes C203. As to the kind of experiment: MIC, standard agar-dilution assay. Format: cell-based.
For experiment [11], the system named is Staphylococcus epidermidis 222. The experiment in a line: MIC, standard agar-dilution assay. The class given is cell-based.
The subject of experiment [12] is Klebsiella pneumoniae KAE. As to the kind of experiment: MIC, standard agar-dilution assay. The class given is cell-based.
Experiment [13] deals with Streptococcus faecium ATCC 9790. As to the kind of experiment: MIC, standard agar-dilution assay. Format: cell-based.
Experiment [14] concerns Streptococcus sp. group D 2041. The experiment in a line: MIC, standard agar-dilution assay. Format: cell-based.
Experiment [15] concerns Escherichia coli N10. The experiment in a line: MIC, standard agar-dilution assay. The class given is cell-based.
For experiment [16], the system named is Escherichia coli EC14. As to the kind of experiment: MIC, standard agar-dilution assay. Format: cell-based.
In experiment [17] the test system is Haemophilus influenzae C.L. The experiment in a line: MIC, standard agar-dilution assay. The class given is cell-based.
Experiment [18] concerns Escherichia coli TEM. The experiment in a line: MIC, standard agar-dilution assay. Format: cell-based.

Converted amounts (≈) assume the structure as drawn.

As to `CCCCCCNC1(C)CC(OC2C(Oc3c4cc5cc3Oc3ccc(cc3Cl)C(O)C3NC(=O)C(NC(=O)C5NC(=O)C(CC(N)=O)NC(=O)C(NC(=O)C(CC(C)C)NC)C(O)c5ccc(c(Cl)c5)O4)c4ccc(O)c(c4)-c4c(O)cc(O)cc4C(C(=O)O)NC3=O)OC(CO)C(O)C2O)OC(C)C1O` (stereo not drawn) [Compound 13, N^van --(n-hexyl)vancomycin], the MIC in experiment [1] is 128 µg/mL (≈ 83.5 µM); in experiment [2], 1 µg/mL (≈ 0.652 µM); in experiment [3] it was 0.125 µg/mL (≈ 0.0815 µM); in experiment [4], 2 µg/mL (≈ 1.3 µM); in experiment [5] it was 0.5 µg/mL (≈ 0.326 µM); in [6], 0.5 µg/mL (≈ 0.326 µM). Moreover, the MIC in experiment [7] is greater than 128 µg/mL; in [8] it was greater than 128 µg/mL; in experiment [9], 1 µg/mL (≈ 0.652 µM); in [10], 0.5 µg/mL (≈ 0.326 µM); in experiment [11], 1 µg/mL (≈ 0.652 µM); in [12] it was greater than 128 µg/mL. For the same compound, the MIC in experiment [13] was 1 µg/mL (≈ 0.652 µM); in experiment [14], 1 µg/mL (≈ 0.652 µM); in [15] it was greater than 128 µg/mL; in experiment [16] it was greater than 128 µg/mL; in experiment [17], 128 µg/mL (≈ 83.5 µM); in experiment [18], greater than 128 µg/mL.

`CCCCCCCCCCNC1(C)CC(OC2C(Oc3c4cc5cc3Oc3ccc(cc3Cl)C(O)C(NC(=O)C(CC(C)C)[N+](C)(C)C)C(=O)NC(CC(N)=O)C(=O)NC5C(=O)NC3C(=O)NC(C(=O)NC(C(=O)[O-])c5cc(O)cc(O)c5-c5cc3ccc5O)C(O)c3ccc(c(Cl)c3)O4)OC(CO)C(O)C2O)OC(C)C1O` (stereo not drawn) [Compound 124, N^van --(n-decyl)-M43A]: the MIC in [1] is greater than 64 µg/mL; in [2], 0.5 µg/mL (≈ 0.309 µM); in [3] it was 0.5 µg/mL (≈ 0.309 µM); in experiment [4], 1 µg/mL (≈ 0.618 µM); in [5], 0.5 µg/mL (≈ 0.309 µM); in experiment [6], 0.5 µg/mL (≈ 0.309 µM). Further, the MIC was greater than 64 µg/mL in [7]; greater than 64 µg/mL in experiment [8]; 0.5 µg/mL (≈ 0.309 µM) in [9]; 0.25 µg/mL (≈ 0.155 µM) in experiment [10]; 0.5 µg/mL (≈ 0.309 µM) in experiment [11]; greater than 64 µg/mL in experiment [12]. In addition, the MIC is 0.5 µg/mL (≈ 0.309 µM) in experiment [13]; 0.5 µg/mL (≈ 0.309 µM) in experiment [14]; greater than 64 µg/mL in experiment [15]; 64 µg/mL (≈ 39.6 µM) in experiment [16]; greater than 64 µg/mL in [17]; greater than 64 µg/mL in experiment [18].

Turning to `CCCCCCCCCCNC1(C)CC(OC2C(Oc3c4cc5cc3Oc3ccc(cc3Cl)C(O)C(NC(=O)C(CC(C)C)N(C)CCCCCCCCCC)C(=O)NC(CC(N)=O)C(=O)NC5C(=O)NC3C(=O)NC(C(=O)NC(C(=O)O)c5cc(O)cc(O)c5-c5cc3ccc5O)C(O)c3ccc(c(Cl)c3)O4)OC(CO)C(O)C2O)OC(C)C1O` (stereo not drawn) [Compound 4, N^van, N^leu --di(n-decyl)vancomycin], the MIC was greater than 128 µg/mL in experiment [1]; 4 µg/mL (≈ 2.31 µM) in experiment [2]; 4 µg/mL (≈ 2.31 µM) in [3]; 16 µg/mL (≈ 9.25 µM) in [4]; 4 µg/mL (≈ 2.31 µM) in [5]; 2 µg/mL (≈ 1.16 µM) in [6]. The MIC in experiment [7] was greater than 128 µg/mL; in [8], greater than 128 µg/mL; in [9], 4 µg/mL (≈ 2.31 µM); in experiment [10], 2 µg/mL (≈ 1.16 µM); in [11] it was 4 µg/mL (≈ 2.31 µM); in [12], greater than 128 µg/mL. The MIC in [13] is 4 µg/mL (≈ 2.31 µM); in experiment [14], 4 µg/mL (≈ 2.31 µM); in experiment [15], greater than 128 µg/mL; in experiment [16], greater than 128 µg/mL; in experiment [17] it was greater than 128 µg/mL; in [18] it was greater than 128 µg/mL.
